From US20070129410A1, “Octahydrophenanthrene hydrazinde derivatives useful as glucocorticoid receptor modulators” (Pfizer Inc., priority 2003, published 2007)

Assays:
[1] = tested on: IL-8 (Interleukin-8) production; assay: Glucocorticoid inhibition of IL-1 induced IL-8 production in SW1353 human chondrosarcoma cells; type: cell-based; settings: 20 ng/ml IL-1 beta, 24 hours after IL-1 addition, ELISA, read-out: IC50, inhibition of IL-8 expression
Method: (§1) This assay, the glucocorticoid inhibition of IL-1 (Interleukin-1) induced MMP-1 (Matrix Metalloproteinase-1) and IL-8 (Interleukin-8) production in human chondrosarcoma cells, is conducted as follows: SW1353 human chondrosarcoma cells (obtained from ATCC) from passage 12 through passage 19 are used in a 96 well format assay. Cells are plated at confluence into 96 well plates in DMEM (Dulbecco's Modified Eagle Medium) with 10% fetal bovine serum and incubated at 37° C., 5% CO2. After 24 hours, serum containing media is removed and replaced with 200 ul/well DMEM containing 1 mg/L insulin, 2 g/L lactalbumin hydrosylate, and 0.5 mg/L ascorbic acid and returned to incubation at 37° C., 5% CO2. […] IL-8 production is assessed using the Quantikine human IL-8 ELISA kit from R&D Systems (D8050) on samples diluted 60-fold in RD5P Calibrator Diluent, following the manufacturer's protocol. The percent of the average IL-1 control is determined for the average of each of the triplicate samples following subtraction of the average signal from untreated cells. IC50's are determined from log linear plots of the percent of control versus the concentration of inhibitor. […] MMP-1 production is assessed via the Bio-Trak MMP-1 ELISA kit from Amersham (RPN2610) on 100 ul of neat sample following the manufacturer's protocol. […]

[2] = tested on: MMP-1 (Matrix Metalloproteinase-1) production; assay: Glucocorticoid inhibition of IL-1 induced MMP-1 production in SW1353 human chondrosarcoma cells; type: cell-based; settings: 20 ng/ml IL-1 beta, 72 hours after IL-1 addition, ELISA, read-out: IC50, inhibition of MMP1 expression
Method: as §1

C[C@@H]1C[C@H]2[C@@H]3CCC4=CC(=O)C=C[C@]4(C)[C@@]3(F)[C@@H](O)C[C@]2(C)[C@@]1(O)C(=O)CO [Dexamethasone]
IC50 [1]: 5 nM
IC50 [2]: 5 nM
